Experiments:
HIV-1Ba-L [1] = test: Combination of HIV-1 inhibitors in HIV-1Ba-L infected PBMC (checker board, CalcuSyn)
Description: After 7 days of incubation, p24 antigen in culture supernatant was quantified by ELISA and cellular viability was assessed by a cytotoxicity assay. fa was calculated for each drug combination after p24 quantification. Using the CalcuSyn program, dose-effect curves were plotted for each drug combination, i.e., each dose was plotted against the corresponding fa value. […] CI values were calculated using the mutually nonexclusive assumption.

COX-2 = target: T1, COX-2 (Homo sapiens, UniProt P35354); conditions: cited from earlier work
T1 sequence (P35354 18-604): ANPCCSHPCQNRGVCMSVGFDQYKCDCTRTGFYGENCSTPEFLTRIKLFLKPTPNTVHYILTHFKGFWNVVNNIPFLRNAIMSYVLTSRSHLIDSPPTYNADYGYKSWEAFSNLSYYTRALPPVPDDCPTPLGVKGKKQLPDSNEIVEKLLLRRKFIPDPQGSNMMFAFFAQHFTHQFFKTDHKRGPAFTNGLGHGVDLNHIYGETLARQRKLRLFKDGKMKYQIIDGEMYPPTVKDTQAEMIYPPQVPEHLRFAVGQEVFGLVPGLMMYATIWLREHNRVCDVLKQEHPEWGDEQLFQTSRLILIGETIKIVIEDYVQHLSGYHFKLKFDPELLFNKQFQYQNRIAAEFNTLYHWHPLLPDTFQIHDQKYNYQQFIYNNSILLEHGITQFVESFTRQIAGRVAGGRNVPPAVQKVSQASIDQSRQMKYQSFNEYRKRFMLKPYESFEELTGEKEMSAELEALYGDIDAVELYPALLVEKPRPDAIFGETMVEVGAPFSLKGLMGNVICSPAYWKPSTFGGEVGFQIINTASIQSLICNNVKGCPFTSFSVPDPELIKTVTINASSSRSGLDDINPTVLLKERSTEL

PBMC = test: Cellular viability assay (MTT) of PBMC; conditions: PBMC
HIV-1Ba-L [2] = test: HIV-1 infection of PBMC, p24-core antigen ELISA; format: cell-based; conditions: for antiviral activity compared to APHS / antiviral activity compared to compound 18: PBMC, HIV-1Ba-L
Description: To correct for the input virus, an extra control consisting of medium containing the same amount of input virus as added to the cells was included in the experiment. The amount of p24 in this control was subsequently subtracted from the p24 values of the samples in order to obtain the exact amount of p24 produced by the cells. p24-core antigen quantification by ELISA After 2 or 7 days incubation, samples of the supernatants were collected, inactivated by addition of Empigen (Calbiochem, La Jolla, CA, USA) and by heat inactivation at 56°C for 30 min. p24-core antigen concentration was determined by an enzyme linked immunoabsorbent assay (ELISA) (AMPAK™, DAKO, Cambridgeshire, UK) as described previously ^18,19. The optical density values were converted into p24 concentration (ng/ml) with the use of a calibration curve made by serial dilutions of recombinant p24 protein (NIBSC, UK) that was submitted to the same treatment as the samples.
(§1) To correct for the input virus, an extra control consisting of medium containing the same amount of input virus as added to the cells was included in the experiment. The amount of p24 in this control was subsequently subtracted from the p24 values of the samples in order to obtain the exact amount of p24 produced by the cells.
(§2) After 7 days incubation, samples of the supernatants were collected, inactivated by addition of Empigen (Calbiochem, La Jolla, CA, USA) and by heat inactivation at 56°C for 30 min. p24-core antigen concentration was determined by an ELISA (AMPAK™, DAKO, Cambridgeshire, UK) as described previously ^39,40. The optical density values were converted into p24 concentration (ng/ml) with the use of a calibration curve made by serial dilutions of recombinant p24 protein (NIBSC, UK) that was submitted to the same treatment as the samples.
as §1
as §2, with “enzyme linked immunoabsorbent assay (ELISA)” for “ELISA”, “15,16.” for “^39,40.”

in vitro = conditions: human, pbmc
[3] = Human immunodeficiency virus 1, PBMC, 168 h, read-out: IC50 Drug, drug alone, head over this column prints Combination
[4] = read-out: IC50 Combination Drug, drug in combination with APHS at the equipotent ratio (1 : 1)
[5] = Human immunodeficiency virus 1, 168 h, PBMC infected with HIV-1Ba-L, p24 antigen after 7 days, read-out: IC50
[6] = PBMC infected with HIV-1Ba-L, p24 antigen after 7 days, read-out: IC50
[7] = Human immunodeficiency virus 1, PBMC, 168 h

Q: What does the source list for `Nc1ccn([C@@H]2CS[C@H](CO)O2)c(=O)n1` [3TC, lamivudine]?
A: IC50 (HIV-1Ba-L [1]; [3]): 10 nM; IC50 (HIV-1Ba-L [1]; [4]): 3 nM

Q: Which “COX-2 activity, potency and selectivity compared with APHS” value (shortened to “COX-2 activity, potency and selectivity”) (COX-2) does the source give for `CCCCC#CCS(=O)(=O)c1ccccc1OC(C)=O` [APHS-d1] here?
A: without anti-COX-2 activity

Q: Which “COX-2 activity, potency and selectivity” value (COX-2) does the source give for `CCCCCCCSc1ccccc1OC(C)=O` [APHS-d2] here?
A: as potent as APHS but less selective against COX-2 than APHS

Q: Which “COX-2 activity, potency and selectivity” value (COX-2) does the source give for `CCCCC#CCSc1ccccc1O` [APHS-d3] here?
A: without COX-2 activity

Q: For `CSc1ccccc1OC(C)=O` [APHS-d4], which “COX-2 activity, potency and selectivity” value (COX-2) is on record?
A: more selective than APHS

Q: What about the “times less potent than APHS against COX-2” value (COX-2) of the same compound?
A: 100

Q: Which IC50 (HIV-1Ba-L [1]; [3]) does the source give for `O=C1Nc2ccc(Cl)cc2[C@@](C#CC2CC2)(C(F)(F)F)O1` [EFV, efavirenz] here?
A: 1 nM

Q: And the IC50 (HIV-1Ba-L [1]; [4])?
A: 0.2 nM

Q: With `CC(C)(C)NC(=O)[C@@H]1CN(Cc2cccnc2)CCN1C[C@@H](O)C[C@@H](Cc1ccccc1)C(=O)N[C@H]1c2ccccc2C[C@H]1O` [IDV, indinavir] as the compound, how does the IC50 (HIV-1Ba-L [1]; [3]) read?
A: 11 nM

Q: What about the IC50 (HIV-1Ba-L [1]; [4]) of the same compound?
A: 5 nM

Q: Which IC50 (HIV-1Ba-L [1]; [3]) does the source give for `CC(C)c1nc(CN(C)C(=O)N[C@H](C(=O)N[C@@H](Cc2ccccc2)C[C@H](O)[C@H](Cc2ccccc2)NC(=O)OCc2cncs2)C(C)C)cs1` [RTV, ritonavir] here?
A: 6 nM

Q: And the IC50 (HIV-1Ba-L [1]; [4])?
A: 3 nM

Q: For `CC(=O)Oc1ccccc1C(=O)O` [aspirin, reference compound], which “times less potent than APHS against COX-2” value (COX-2) is on record?
A: 60

Q: What about the “times less selective than APHS for COX-2” value (COX-2) of the same compound?
A: 100

Q: With `CCCCC#CCSc1ccccc1OCC` [compound 1, Benzene, 1-ethoxy-2-(2-heptynylthio)-] as the compound, how does the “cytotoxicity compared to APHS” value (PBMC) read?
A: decreased

Q: What about the “antiviral activity compared to APHS” value (HIV-1Ba-L [2]) of the same compound?
A: decreased

Q: For `CCCCOCCSc1ccccc1OC(=O)C(F)(F)F` [compound 7, Acetic acid, trifluoro-, 2-(2-butoxyethylthio)phenylester], which “cytotoxicity compared to APHS” value (PBMC) is on record?
A: decreased

Q: And the “antiviral activity compared to APHS” value (HIV-1Ba-L [2])?
A: decreased

Q: Which results are given for `CCCCCCCCSc1ccccc1O` [compound 8]?
A: cytotoxicity compared to APHS (PBMC): increase; antiviral activity compared to APHS (HIV-1Ba-L [2]): less antiviral activity than APHS

Q: Which results are given for `CCCCCCCCSc1ccccc1OC(C)=O` [compound 9]?
A: CC50 at 168 h (in vitro): 135000 nM; IC50 (HIV-1Ba-L [2]; [5]): 20000 nM

Q: Which “cytotoxicity compared to APHS” value (PBMC) does the source give for `CCCCCCCSc1ccccc1O` [compound 10] here?
A: increase

Q: What about the “antiviral activity compared to APHS” value (HIV-1Ba-L [2]) of the same compound?
A: less antiviral activity than APHS

Q: Which results are given for `CCCCCCCSc1ccccc1OC(C)=O` [compound 11]?
A: CC50 at 168 h (in vitro): 48000 nM; IC50 (HIV-1Ba-L [2]; [5]): 10000 nM

Q: For `CCCCCCCSc1ccccc1OC(=O)C(F)(F)F` [compound 12, Acetic acid, trifluoro-, 2-(heptylthio) phenylester], which “cytotoxicity compared to APHS” value (PBMC) is on record?
A: decreased

Q: And the “antiviral activity compared to APHS” value (HIV-1Ba-L [2])?
A: decreased

Q: For `CCCCCCCSc1ccccc1OC(=O)CCCC` [compound 13, Phenol, 2-(heptylthio)-, valerate], which “cytotoxicity compared to APHS” value (PBMC) is on record?
A: decreased

Q: What about the “antiviral activity compared to APHS” value (HIV-1Ba-L [2]) of the same compound?
A: decreased

Q: Which “cytotoxicity compared to APHS” value (PBMC) does the source give for `CCCCCCCSc1ccccc1OC(=O)c1ccccc1` [compound 14, Phenol, 2-(heptylthio)-, benzoate] here?
A: increased

Q: What about the “antiviral activity compared to APHS” value (HIV-1Ba-L [2]) of the same compound?
A: decreased

Q: With `CCCCCCCSc1ccc(O)cc1` [compound 15] as the compound, how does the “cytotoxicity compared to APHS” value (PBMC) read?
A: increased

Q: And the “fold increase in cytotoxicity compared to APHS” value (PBMC)?
A: about 10

Q: And the IC50 (HIV-1Ba-L [2]; [6])?
A: 3000 nM

Q: And the “antiviral activity compared to APHS” value (HIV-1Ba-L [2])?
A: increased

Q: With `CCCCCCCSc1ccc(OC(C)=O)cc1` [compound 16, Phenol, 4-(heptylthio)-, acetate] as the compound, how does the “cytotoxicity compared to APHS” value (PBMC) read?
A: increase

Q: And the “fold increase in cytotoxicity compared to APHS” value (PBMC)?
A: about 10

Q: What about the IC50 (HIV-1Ba-L [2]; [5]) of the same compound?
A: 2000 nM

Q: And the “antiviral activity compared to APHS” value (HIV-1Ba-L [2])?
A: increase

Q: For `CCCCCCSc1ccccc1O` [compound 17], which “cytotoxicity compared to APHS” value (PBMC) is on record?
A: increase

Q: And the IC50 (HIV-1Ba-L [2]; [7])?
A: 4000 nM

Q: And the “antiviral activity compared to APHS” value (HIV-1Ba-L [2])?
A: improvement

Q: Which CC50 (PBMC; read-out: TC50, 7 days, MTT) does the source give for `CCCCCCSc1ccccc1OC(C)=O` [compound 18] here?
A: 119000 nM

Q: What about the IC50 (HIV-1Ba-L [2]; [6]) of the same compound?
A: 3000 nM

Q: Which results are given for `CCCCCSc1ccccc1O` [compound 19]?
A: IC50 (HIV-1Ba-L [2]; [7]): 900 nM; antiviral activity compared to APHS (HIV-1Ba-L [2]): improved

Q: For `CCCCCSc1ccccc1OC(C)=O` [compound 20], which “antiviral activity compared to compound 18” value (HIV-1Ba-L [2]) is on record?
A: worse

Q: With `CCCCSc1ccccc1O` [compound 21] as the compound, how does the IC50 (HIV-1Ba-L [2]; [7]) read?
A: 3000 nM

Q: What about the “antiviral activity compared to APHS” value (HIV-1Ba-L [2]) of the same compound?
A: improved

Q: With `CCCCSc1ccccc1OC(C)=O` [compound 22] as the compound, how does the “antiviral activity compared to compound 18” value (HIV-1Ba-L [2]) read?
A: worse

Q: Which results are given for `CCCSc1ccccc1O` [compound 23]?
A: IC50 (HIV-1Ba-L [2]; [7]): 5000 nM; antiviral activity compared to APHS (HIV-1Ba-L [2]): improved

Q: Which “antiviral activity compared to compound 18” value (HIV-1Ba-L [2]) does the source give for `CCCSc1ccccc1OC(C)=O` [compound 24] here?
A: worse

Q: Which IC50 (HIV-1Ba-L [2]; [7]) does the source give for `CCSc1ccccc1O` [compound 25] here?
A: 4000 nM

Q: What about the “antiviral activity compared to APHS” value (HIV-1Ba-L [2]) of the same compound?
A: improved

Q: Which “antiviral activity compared to compound 18” value (HIV-1Ba-L [2]) does the source give for `CCSc1ccccc1OC(C)=O` [compound 26] here?
A: worse

Source: patent EP1452605A1, “Method for determining antiviral activity” (Universiteit Utrecht Holding B.V., priority 2003, dated 2004)
